Assays:
Type in all cases: cell-based
[1] = system: SDOV3 cells (an ovarian cancer cell line); assay: Detection of ovarian cancer cells: absorption and intracellular deacylation to a fluorescent structure, fluorescence microscopy; details: folate-free medium (no FBS), washed with HBSS, 20× immersion objective
Description: Compound 24 and comparative compound A were evaluated for their ability to be absorbed by cancer cells and then, in the case of compound 24, deacylated by intracellular esterases so as to regenerate a fluorescent structure. Specifically, approximately 500,000 SDOV3 cells (an ovarian cancer cell line) were seeded into separate 35 mm culture dishes containing a folate-free growth medium (RPMI+10% FBS). The next day, the medium was replaced with a folate-free medium (no FBS). In one culture dish, the medium was supplemented with 25 micromolar of compound 24; and, in another culture dish, the medium was supplemented with 50 micromolar of comparative compound A. After incubation, the cells were washed with HBSS (Hank's balanced salt solution) to remove unbound compound. The cells were then imaged with a 20× immersion objective on a standard upright fluorescent microscope. […] FIG. 1 illustrates a picture showing the fluorescence generated. Note that only the cancer cells evidenced fluorescence and that the solution remained non-fluorescent. […] This evidences that that composition was not suitable for use in the methods described herein.

[2] = system: SKOV3 cells; assay: Dose response of fluorescence generated in SKOV3 cells; details: 1 hour; for Mean intensity: SKOV3 cells, RPMI + 0.25% BSA, image J
Description: This experiment establishes that compound 24 provides a dose response relative to the fluorescence generated. Specifically, SKOV3 cells were incubated with 10 μM, 25 μM, or 50 μM of compound 24 in RPMI supplemented with 0.25% BSA. Cells were incubated for 1 hour then washed with HBSS and imaged as before.
All images were analyzed using exactly the same parameters using the image J software suite. Mean intensity was measured from identical regions with in each image. […] While BSA was used as a supplement, acylated BSA may be more practical.

[3] = target: T1, folate binding protein (folate receptor) on SKOV3 cells (Homo sapiens, UniProt P15328); assay: Folate competition: labeling of ovarian cancer cells via the folic acid receptor; details: 10 μM compound alone vs 10 μM + 1 mM folate (100×)
T1 construct: endogenous in cells; host or cells: SKOV3 cells
Description: This example establishes that compound 24 is specific for the folate receptor. Specifically, compound 24 was used in a folate free medium and in a medium using excess folate that competed with compound 24. The rationale is that in the presence of excess folate, compound 24 would have to compete for binding to the folate binding protein and therefore there would be less signal than when compound 24 was the sole source of folate.
To test this hypothesis, SKOV3 cells were incubated with 10 μM of compound 24 or with 10 μM of compound 24+1 mM folate (100×s). Cells were then washed and imaged as before.
All images were analyzed using exactly the same parameters. Mean intensity was measured from identical regions with in each image. […] These images establish that compound 24 binds to cells through the folate binding protein and not by some other route.

[4] = system: MCF7 cells, a breast cancer cell line that expresses folate binding protein; assay: Labeling of MCF7 cells (correlation between folic acid receptors and fluorescence intensity); details: MCF cells, 10 uM, one hour, folate-free RPMI, no FBS
Description: In this experiment, the procedures set forth above were repeated with the exception that SKOV3 cells were replaced with MCF7 cells—a breast cancer cell line that expresses folate binding protein albeit at a level lower than that of the SKOV3 cells. […] However, the fluorescent intensity generated by the MCF7 cells was less than that generated by SKOV3 cells.
Specifically, MCF cells were labeled at 10 uM with compound 24 for one hour in folate-free RPMI, no FBS. Cells were washed and imaged.

T1 sequence (P15328 25-234): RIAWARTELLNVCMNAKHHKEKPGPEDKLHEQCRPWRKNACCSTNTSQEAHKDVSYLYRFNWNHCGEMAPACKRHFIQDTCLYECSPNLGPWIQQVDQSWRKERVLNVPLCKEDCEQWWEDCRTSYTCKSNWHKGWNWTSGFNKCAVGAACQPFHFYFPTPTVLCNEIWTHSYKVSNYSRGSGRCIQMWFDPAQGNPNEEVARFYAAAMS

Row | Compound | fluorescent signal of cancer cells after incubation ([1]; 50 micromolar) | Mean intensity ([2]; 10 μM) | Mean intensity ([2]; 25 μM) | Mean intensity ([2]; 50 μM) | dose response in labeling cells ([2]; SKOV3 cells, 10, 25, 50 μM) | fluorescent signal of cancer cells after incubation ([1]; 25 micromolar) | competition by excess folate for labeling ovarian cancer cells [3] | labeling of cells (fluorescence) [4]
1 | Nc1nc2ncc(CNc3ccc(C(=O)NC(CCC(=O)NCCCCCNC(=O)c4cccc(-c5c6ccc(=O)cc-6oc6cc(O)ccc56)c4C(=O)O)C(=O)O)cc3)nc2c(=O)[nH]1 (centres unmarked) [comparative compound A, reference compound] | showed a burst of fluorescence but immediately the fluorescence was bleached | – | – | – | – | – | – | –
2 | O,O′-(5-(3-(4-((4-(4-(((2-amino-4-oxo-3,4-dihydropteridin-6-yl)methyl)amino)benzamido)-5-methoxy-5-oxopentanamido)methyl)phenyl)thioureido)-3-oxo-3H-spiro[isobenzofuran-1,9′-xanthene]-3′,6′-diyl) bis)(2-methoxyethyl) Disuccinate [compound 24] | – | 312.8 | 360.4 | 545.5 | clear dose response | clear, consistent and unambiguous | folate competes with compound 24 | labeling is faint
